Measured values reported in publication PMC5652740, “Inhibition of HIV-1 infection in humanized mice and metabolic stability of protein phosphatase-1-targeting small molecule 1E7-03” (Oncotarget, 2017).

Tests used:
CEM T cells = experiment: Cytotoxicity with calcein-AM; format: cell-based; conditions: in words
Experimental: To assess cytotoxicity with calcein, media was removed and the cells washed with PBS in order to remove serum esterase activity that may cause an increase in fluorescence through the hydrolysis of calcein-AM. Cells were then supplemented with 0.2 μM calcein-AM (Molecular Probes, Invitrogen) for 10 min at 37°C. Fluorescence was measured using the luminescence spectrometer described above implementing 495 nm excitation and 515 nm emission filters.

[1] = 1E7-03 degradation in guinea pig plasma; format: in vitro ADME; conditions: 10 μM, 37°C, 4 hrs
Experimental: (§1) 1E7-03 dissolved in DMSO (10 mM stock solution) was mixed with mouse plasma (Sigma-Aldrich), guinea pig plasma (Sigma-Aldrich), ferret plasma (BioreclamationIVT), monkey plasma (courtesy of Binhua Ling, PhD, Tulane University) and human plasma (collected from heathy volunteer by the Center for Sickle Cell Disease at Howard University) to the final concentration of 10 μM and incubated at 37°C. Aliquots were collected at different time points for up to 24 hrs. The resulting sample (60 μl) was mixed with 240 μl of cold acetone, vortexed for 2 min, kept at –20°C for 30 min, and then the precipitated protein was removed by centrifugation at 13,000 × g for 5 min. The supernatant was transferred to a clean test tube and evaporated to dryness using a SpeedVac concentrator. The residue reconstituted in 60 μl of acetonitrile for LC/FT-MS analysis. All experiments were run parallel in triplicates.

[2] = 1E7-03 degradation in human plasma; format: in vitro ADME; conditions: 37°C
Experimental: as §1

[3] = Stability of 1E7-03 in cell culture media and PBS; format: physicochemical
Experimental: CEM T cells were seeded in 24-well plates (200,000 cells/well). On the next day cells were treated with 10 μM 1E7-03. Media (100 μl) was collected at different time points during 48 hrs and total protein was precipitated by 400 μl of cold acetone and centrifuged at 13,000 × g for 5 min. The supernatant was collected and evaporated to dryness using a SpeedVac concentrator. The dry pellet was reconstituted in 100 μl of acetonitrile for LC/FT-MS analysis. In addition, 1E7-03 (10 μM) was incubated at 37°C in serum-free media and complete media without cell treatment. Media of 100 μl was collected after 24 hrs of incubation. The stabilities of 1E7-03 (10 μM) at phosphate buffered saline (PBS) and PBS with the addition of 10% bovine serum albumin were also investigated at 37°C incubation. Samples (100 μl) were collected at different time points up to 24 hrs. All samples were prepared by the same above-mentioned procedure for LC/FT-MS analysis.

[4] = system: PP1 regulatory subunit Sds22; experiment: Label free quantitative proteomics of HIV-1 infected CEM T cells; format: cell-based; conditions: 10 μM, SIEVE quantification
Experimental: CEM T cells were infected with VSVG-pseudotyped pNL4-3.Luc.R-E-virus (HIV-1-LUC-G) and cultured in 100 mm culture plates (1.25 × 10^6 cells/ml) containing 10 ml of supplemented RPMI media at 37°C and 5% CO2. The cells were treated with 10 μM of 1E7-03 or vehicle (DMSO) and incubated overnight. Cells were collected and washed three times with PBS. To obtain cell lysates, the cells were suspended in 1 ml cold whole cell lysis buffer (50 mM Tris-HCl, pH 7.5, 0.5 M NaCl, 1% NP-40, 0.1% SDS) with protease and phosphatase inhibitors (P044-1ML, Sigma Aldrich). The cytosolic protein fraction was isolated by centrifugation at 13,000xg for 30 min at 4 °C to remove cellular debris. […]
Tryptic peptides were purified by Pierce™ Graphite Spin Columns following manufacturer's instructions, resuspended in water with 0.1% formic acid (v/v) and analyzed by an LTQ Orbitrap XL mass spectrometer (Thermo Fisher Scientific) coupled to a Prominence Nano LC (Shimadzu) using the Xcalibur version 2.7.0 (Thermo Scientific). […]
LC-MS/MS raw data were searched by Proteome Discoverer 1.4 using Sequest search engine (Thermo Fisher Scientific), against the Uniprot Human database (6/10/2016, 135431 sequences) at a false discovery cut off ≤1%. […] The label-free quantification of peptides eluting between 10 and 80 min was performed with SIEVE 2.1 software (Thermo Scientific). […]

Question: With COc1ccc(/C=C2\CCCc3c2nc2ccccc2c3C(=O)OC(C)C(=O)OC(C)(C)C)cc1OC (stereo not drawn) [DP1-07] as the compound, how does the “toxicity in CEM T cells compared to 1E7-03” value (CEM T cells) read?
Answer: Its value is “reduced toxicity”.

Question: Which results are given for CCNC(=O)NC(=O)C(C)OC(=O)c1c2c(nc3ccccc13)/C(=C/c1ccc(OC)c(OC)c1)CC2 (stereo not drawn) [1E7-03]?
Answer: % of compound degraded [1]: about 80%; remaining at 24 h, 10 µM [2]: > 50%; Peak Area (%), Complete media ([3]; 10 μM 1E7-03 in media with 10% FBS, 37°C, 24 hrs, 1E7-03 remaining and DPs formed): 98.6%; Peak Area (%), FBS free media ([3]; 10 μM 1E7-03 in serum free media, 37°C, 24 hrs, 1E7-03 remaining and DPs formed): 7%; stability in complete media ([3]; 10 μM, 37°C, 48 hrs, in words): remained stable and did not undergo degradation; remaining at 4 h, 10 µM ([3]; PBS with 10% bovine serum albumin, 4 hrs, read-out: % remaining intact in PBS with 10% BSA): 75%; remaining at 24 h, 10 µM ([3]; PBS with 10% bovine serum albumin, 24 hrs, read-out: % remaining in PBS with 10% BSA): > 50%; % of compound degraded in PBS ([3]; PBS, 37°C, 4 hrs): over 80%; remaining at 48 h, 10 µM ([3]; human, culture media of CEM T cells, 48 hrs of incubation, read-out: % remained intact in cell culture media): > 90%; Sds22 Ratio 1E7-03/Control [4]: 0.804; α-tubulin Ratio 1E7-03/Control [4]: 0.936
